Measurements as given in patent US6395737B1, “Malonic acid derivatives, processes for their preparation, for their use and pharmaceutical compositions containing them” (Aventis Pharma Deutschland GmbH, priority 1999, dated 2002).
Where two headings read alike, the source gives them in different places.

Columns and labels:
factor Xa [1] = target: T1, factor Xa (Homo sapiens, UniProt P00742); assay: In vitro Factor Xa assay (Test 1a), chromogenic substrate S-2765; assay type: biochemical; parameters: purchased Enzyme Research Laboratories, Inc; South Bend, Ind; conditions: Factor Xa inhibitory activity; Ki from IC50 corrected for substrate competition; 0.5 nM enzyme, 140 μM S-2765, 25° C.
From the text: The ability of a compound of formula I to inhibit factor Xa, thrombin, plasmin, elastase and trypsin may be assessed by determining the concentration of compound of formula I that inhibits enzyme activity by 50% (IC50). Purified enzymes are used in chromogenic assays. To determine the inhibition constant, the IC50 value is corrected for competition with substrate using the formula:
Ki=IC50×(1/{1+((substrate concentration)/substrate Km)})
where Km is the Michaelis-Menten-constant (Y.-C. Chen and W.H. Prusoff, Biochem. Pharmacol. 22: […] (1973), which is incorporated herein by reference).
TBS-PEG buffer (50 mM Tris-Cl, pH 7.8, 200 mM NaCl, 0.05% (w/v) PEG-8000, 0.02% (w/v) NaN3) is used for this assay. The IC50 is determined by combining in appropriate wells of a Costar half-area microtiter plate 25 μl human factor Xa (Enzyme Research Laboratories, Inc.; South Bend, Ind.) in TBS-PEG; 40 μl 10% (v/v) DMSO in TBS-PEG (uninhibited control) or various concentrations of the compound to be tested diluted in 10% (v/v) DMSO in TBS-PEG; and substrate S-2765 (N-benzyloxycarbonyl-D-Arg-Gly-L-Arg-p-nitroanilide; Kabi Pharmacia, Inc.; Franklin Ohio) in TBS-PEG.
The assays are performed by pre-incubating the compound of formula I plus enzyme for 10 min, then the assay is initiated by adding substrate to obtain a final volume of 100 μl. The initial velocity of chromogenic substrate hydrolysis is measured by the change in absorbance at 405 nm using a Bio-tek Instruments kinetic plate reader (Ceres UV900HDi) at 25° C. during the linear portion of the time course (usually 1.5 min after addition of substrate). The concentration of inhibitor that causes a 50% decrease in the rate of substrate hydrolysis is predicted by linear regression after plotting the relative rates of hydrolysis (compared to the uninhibited control) versus the log of the compound of formula I concentration. The enzyme concentration is 0.5 nM and substrate concentration is 140 μM.

factor Xa [2] = target: T1, factor Xa; conditions: cited from earlier work
thrombin and factor Xa = conditions: rate of inactivation, thrombin relative to factor Xa; cited from earlier work

T1 sequence (P00742 235-488 limits assumed): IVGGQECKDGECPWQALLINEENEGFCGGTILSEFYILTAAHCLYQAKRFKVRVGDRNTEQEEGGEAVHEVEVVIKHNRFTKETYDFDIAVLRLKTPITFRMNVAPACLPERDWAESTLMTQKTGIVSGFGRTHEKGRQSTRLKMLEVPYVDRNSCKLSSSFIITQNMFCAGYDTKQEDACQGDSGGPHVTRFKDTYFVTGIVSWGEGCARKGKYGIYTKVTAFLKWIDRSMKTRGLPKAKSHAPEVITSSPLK
T1 sequence (P00742 41-179 partner limits assumed): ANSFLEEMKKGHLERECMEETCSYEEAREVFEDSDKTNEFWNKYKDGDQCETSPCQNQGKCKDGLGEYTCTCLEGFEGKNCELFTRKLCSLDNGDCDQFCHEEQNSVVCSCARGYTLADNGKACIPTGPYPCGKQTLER

| melting point | Ki (factor Xa [1]) [nM] | Molecule | other results |
| --- | --- | --- | --- |
| 125 to 128 °C |  | CC(C)(C)OC(=O)N1CCN(CCNC(=O)[C@@H](NC(=O)C(Cc2ccc(C(=N)N)cc2)C(=O)NCc2ccccc2)C2CCCCC2)CC1.O=C(O)C(F)(F)F (stereo partly drawn) |  |
| 196 °C (dec.) |  | N=C(N)c1ccc(CC(C(=O)NCc2ccccc2)C(=O)N[C@H](C(=O)NCCN2CCNCC2)C2CCCCC2)cc1.O=C(O)C(F)(F)F (stereo partly drawn) |  |
|  | 2 | CN(C)C(=O)C(Cc1ccc(C(=N)N)cc1)C(=O)N[C@H](C(=O)NCC1CCC(C(=N)N)CC1)C1CCCCC1 (stereo partly drawn) [Example 116, 2-(4-Carbamimidoyl-benzyl)-N-{(S)-[(4-carbamimidoyl-cyclohexylmethyl)-carbamoyl]-cyclohexyl-methyl}-N′,N′-dimethyl-malonamide] |  |
|  | 6 | CN(C)C(=N)c1ccc(CC(C(=O)NC(C(=O)NCC2CCC(C(=N)N(C)C)CC2)C2CCCCC2)C(=O)N(C)C)cc1 [Example 120, N-(S)-(Cyclohexyl-{[4-(N,N-dimethyl-carbamimidoyl)-cyclohexylmethyl]-carbamoyl}-methyl)-2-[4-(N,N-dimethyl-carbamimidoyl)-benzyl]-N′,N′-dimethyl-malonamide] |  |
|  |  | TAP: tick anticoagulant peptide, isolated from the tick Ornithodoros moubata, contains 60 amino acids; inhibitor of factor Xa (YNRLCIKPRDWIDECDSNEGGERAYFRNGKGGCDSFWICPEDHTGADYYSSYRDCFNACI; UniProt P17726 1-60, looked up) | Ki (factor Xa [2]): ~0.5 nM |
|  |  | heparin | thrombin inactivated faster than factor Xa (thrombin and factor Xa): approximately 100 times |
